What was measured:
[1] = Compound loss (PDMS ad- and absorption) in cell-free organ-chips; assay type: in vitro ADME; conditions: for Compound Loss Bottom Channel (%) / Compound Loss Top Channel (%): cell-free organ-chips, 10 µM per drug in cocktail, outlet vs inlet after one hour at 200 µL/h, mean of two experiments
Description: S-1® Organ-Chips from Emulate Inc. (Boston, MA, USA) comprise 2 parallel channels (top and bottom) for cell culture, which are superimposed and separated via a porous membrane, all made of polydimethylsiloxane (PDMS). The 50 µm thick membrane contains pores of a diameter of 7 µm, which are spaced 40 µm apart from each other. In addition, 2 more channels, in which a vacuum can be applied to laterally stretch the cell culture channels, flank the cell culture channels horizontally. The top channel has a size of 1000 × 1000 µm (width × height), a culture area of 28 mm^2, and a volume of 28 µL. The bottom channel has a size of 1000 × 200 µm (width × height), a culture area of 24.5 mm^2, and a volume of 5.6 µL. Both channels share an area of 17.1 mm^2 of the porous membrane as a coculture area. To conduct experiments, each organ-chip is inserted into a cell culture container called Pod®, which connects 4 physically separated fluid reservoirs with the in- and outlets of the top and bottom channels. […] The Zoë module controls, as well as regulates, the vacuum and pressured gas flows generated by the Orb hub module, which also powers the Zoë module.
Compound loss experiments in cell-free organ-chips were performed with used chips after removal of the cells and washing-out of previously perfused compounds (Section 4). […] The compound concentrations in the outlets were measured via liquid chromatography-tandem mass spectrometry (LC-MS/MS, Section 2.8) after a period of one hour, with a flow rate of 200 µL/h (manufacturer’s instruction), and relatively compared to the inlet concentrations, and the difference was reported as the percent drug absorbed. The experiments were performed in duplicate.

[2] = tested on: Caco-2/HUVEC gut-on-chip; assay: Metabolite identification in Caco-2/HUVEC gut-on-chip; conditions: testosterone 10 µM perfused 2 h at 200 µL/h; top and bottom outlets
Description: The analysis was performed on an LC-MS system containing a Vanquish UPLC (ThermoFisher Scientific, San Jose, CA, USA) coupled to an Orbitrap FusionTribrid high-resolution mass spectrometer (ThermoFisher Scientific). The structural elucidation was based on exact mass measurements in combination with the interpretation of fragment spectra.

[3] = tested on: P-gp; assay: Bidirectional permeability assay in Caco-2/HUVEC gut-on-chip; assay type: cell-based, human; conditions: human, pH 7.4; Caco-2/HUVEC gut-on-chip, day 10; 10 µM; no inhibitor; read-out: efflux ratio, control
Description: (§1) The Caco-2/HUVEC gut-on-chip was prepared according to the Caco-2/HUVEC gut-on-chip protocol provided by Emulate Inc. Briefly, on day −1 of the protocol, the PDMS membrane was activated using Emulate reagent (ER) 1 dissolved in ER 2 solution at a concentration of 0.5 mg/mL. The top channels were filled with 50 µL and the bottom channels with 20 µL of ER 1 solution and then treated under UV light for 10 min. Next, activated ER 1 solution was aspirated from both channels and exchanged with fresh ER 1 solution after which the chips were again exposed to UV light for 5 min. The two channels were then subsequently washed with ER 2 solution followed by ice-cold PBS. After the PBS was fully aspirated from both channels, the chips were coated with 100 µg/mL Matrigel and 30 µg/mL collagen type I in PBS overnight at 37 °C. On day 0 of the protocol, both channels were washed with HUVEC culture medium before 0.14 × 10^6 viable HUVECs in 20 µL HUVEC culture medium were seeded in the bottom channel. The chips were inverted and HUVECs were allowed to adhere for at least 2 h to the porous PDMS membrane. Afterwards, the chips were inverted again, and the top channel was filled with enough Caco-2 culture medium to also cover the in- and outlets (~100 µL). Caco-2 cells were seeded in the top channel (0.15 × 10^6 viable cells in 50 µL Caco-2 culture medium). […]

[4] = tested on: P-gp; assay: in vitro; conditions: human, Caco-2
Description: Either the top (A–B direction) or bottom (B–A direction) channel served as the donor compartments and the respective other channels (A–B: bottom; B–A: top) as receiver compartments. […] Following an Emulate protocol, dosing of a cocktail of both compounds at 10 µM in transporter buffer was initiated via a drug introduction step (flow rate of 600 µL/h for 10 min), after which the outlets were aspirated. The outlet concentrations were determined after one hour (flow rate: 200 µL/h). […] The samples from the receiver outlets were used for the bioanalysis without dilution. The samples from the donor inlets, as well as outlets, were diluted 1:50 (v/v) in transport buffer. All samples were spiked with the internal standard and used for the LC-MS/MS analysis, as described in Section 2.8.

[5] = tested on: Caco-2/HUVEC gut-on-chip; assay: Bidirectional permeability assay in Caco-2/HUVEC gut-on-chip; assay type: cell-based, human; conditions: coperfusion with elacridar 10 µM in Caco-2/HUVEC gut-on-chip
Description: as §1

[6] = target: T1, P-gp (Homo sapiens, UniProt P08183); assay: Inhibition of P-gp mediated Quinidine efflux in MDCK-MDR1 cells; assay type: cell-based; conditions: probe quinidine, Supplementary Table S2
T1 construct: expressed in transfected cells; host or cells: MDCK-MDR1 cells
T1 sequence (P08183 whole entry): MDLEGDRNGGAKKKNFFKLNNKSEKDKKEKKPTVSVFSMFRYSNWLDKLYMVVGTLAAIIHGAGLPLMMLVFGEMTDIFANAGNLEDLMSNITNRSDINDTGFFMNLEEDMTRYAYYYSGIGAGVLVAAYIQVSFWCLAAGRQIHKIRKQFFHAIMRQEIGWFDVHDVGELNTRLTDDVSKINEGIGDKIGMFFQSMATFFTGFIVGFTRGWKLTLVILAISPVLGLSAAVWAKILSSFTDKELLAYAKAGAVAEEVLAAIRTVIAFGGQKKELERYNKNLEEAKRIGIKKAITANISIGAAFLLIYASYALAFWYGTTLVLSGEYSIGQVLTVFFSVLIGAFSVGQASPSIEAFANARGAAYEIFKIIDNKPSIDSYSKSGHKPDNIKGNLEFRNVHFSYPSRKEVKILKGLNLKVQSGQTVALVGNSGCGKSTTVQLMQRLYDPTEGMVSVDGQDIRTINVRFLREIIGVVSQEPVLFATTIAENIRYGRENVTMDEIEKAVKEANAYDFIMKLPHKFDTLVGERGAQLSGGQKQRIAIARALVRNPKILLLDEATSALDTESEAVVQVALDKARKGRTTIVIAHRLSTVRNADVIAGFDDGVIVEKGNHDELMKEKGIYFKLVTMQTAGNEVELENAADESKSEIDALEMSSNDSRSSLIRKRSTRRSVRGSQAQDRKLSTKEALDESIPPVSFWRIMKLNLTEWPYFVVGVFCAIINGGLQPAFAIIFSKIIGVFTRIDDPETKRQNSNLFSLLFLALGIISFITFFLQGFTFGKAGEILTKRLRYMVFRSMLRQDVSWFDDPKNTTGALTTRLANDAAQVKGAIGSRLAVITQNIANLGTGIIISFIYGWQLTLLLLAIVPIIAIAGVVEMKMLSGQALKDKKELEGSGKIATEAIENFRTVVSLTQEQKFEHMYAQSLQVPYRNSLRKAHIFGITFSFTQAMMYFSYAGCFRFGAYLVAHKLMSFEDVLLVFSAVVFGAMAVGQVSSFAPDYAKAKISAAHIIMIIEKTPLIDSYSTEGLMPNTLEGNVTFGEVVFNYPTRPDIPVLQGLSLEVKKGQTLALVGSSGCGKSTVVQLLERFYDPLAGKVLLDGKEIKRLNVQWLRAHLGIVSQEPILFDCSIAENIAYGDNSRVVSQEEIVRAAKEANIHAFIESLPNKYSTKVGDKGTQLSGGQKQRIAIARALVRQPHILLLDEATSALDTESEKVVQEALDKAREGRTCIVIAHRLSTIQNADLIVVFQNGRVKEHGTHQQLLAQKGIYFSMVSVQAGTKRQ

Structure (SMILES)	Compound Loss Bottom Channel (%) [1] [%]	Compound Loss Top Channel (%) [1] [%]	also measured
C[C@]12CCC(=O)C=C1CC[C@@H]1[C@@H]2CC[C@]2(C)C(=O)CC[C@@H]12 [4-androstenedione]	–	–	compound loss in cell-free organ-chips (in words, relative to testosterone) ([1]; Supplementary Table S1): much higher compound loss; fraction of the total amount of all metabolites (peak areas) [2]: 96.5%
Cc1nnc2n1-c1sc(CCC(=O)N3CCOCC3)cc1C(c1ccccc1Cl)=NC2 [Apafant]	8.0	15.0	efflux ratio at 1 h, 10 µM [3]: 22.2; efflux ratio [4]: 12.4 ± 7.8
CC(C)c1c(C(=O)Nc2ccccc2)c(-c2ccccc2)c(-c2ccc(F)cc2)n1CC[C@@H](O)C[C@@H](O)CC(=O)O [Atorvastatin]	7.4	18.9	–
Cc1c(-c2ccc(O)cc2)n(Cc2ccc(OCCN3CCCCCC3)cc2)c2ccc(O)cc12 [Bazedoxifene]	26.0	56.4	–
O=C1CC2(CCCC2)CC(=O)N1CCCCN1CCN(c2ncccn2)CC1 [Busiprone]	30.5	33.1	–
COc1cc2c(cc1OC)CN(CCc1ccc(NC(=O)c3cccc4c(=O)c5cccc(OC)c5[nH]c34)cc1)CC2 [Elacridar]	–	–	inhibition of the efflux of Apafant [5]: completely; IC90 [6]: ~1000 nM
O=C1[C@H](CC[C@H](O)c2ccc(F)cc2)[C@@H](c2ccc(O)cc2)N1c1ccc(F)cc1 [Ezetemibe]	1.3	0.0	–
CCOC(=O)C1=C(C)NC(C)=C(C(=O)OC)C1c1cccc(Cl)c1Cl (stereo not drawn) [Felodipine]	84.0	79.0	–
